In PubChem BioAssay (NCI):
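GI50 marks 50% less growth. TGI marks complete inhibition of growth.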

Columns and labels:
Assay in all cases: NCI anticancer screen, dose series, 384-well format
[1] = system: 786-0 renal
[2] = system: A498 renal
[3] = system: A549 NSCLC
[4] = system: ACHN renal
[5] = system: BT-549 breast
[6] = system: CAKI-1 renal
[7] = system: CCRF-CEM leukemia
[8] = system: COLO 205 colon
[9] = system: DU-145 prostate
[10] = system: HCC-2998 colon
[11] = system: HCT-116 colon
[12] = system: HCT-15 colon
[13] = system: HL-60(TB) leukemia
[14] = system: HOP-62 NSCLC
[15] = system: HOP-92 NSCLC
[16] = system: HT29 colon
[17] = system: IGROV1 ovarian
[18] = system: K-562 leukemia
[19] = system: KM12 colon
[20] = system: LOX IMVI melanoma
[21] = system: M14 melanoma
[22] = system: MALME-3M melanoma
[23] = system: MCF7 breast
[24] = system: MDA-MB-231 breast
[25] = system: MDA-MB-435 melanoma
[26] = system: MDA-MB-468 breast
[27] = system: MOLT-4 leukemia
[28] = system: NCI-H226 lung
[29] = system: NCI-H23 lung
[30] = system: NCI-H322M lung
[31] = system: NCI-H460 NSCLC
[32] = system: NCI-H522 lung
[33] = system: NCI/ADR-RES ovarian
[34] = system: OVCAR-3 ovarian
[35] = system: OVCAR-4 ovarian
[36] = system: OVCAR-5 ovarian
[37] = system: OVCAR-8 ovarian
[38] = system: PC-3 prostate
[39] = system: RPMI-8226 leukemia
[40] = system: RXF 393 renal
[41] = system: SF-268 CNS
[42] = system: SF-295 CNS
[43] = system: SF-539 CNS
[44] = system: SK-MEL-2 melanoma
[45] = system: SK-MEL-28 melanoma
[46] = system: SK-MEL-5 melanoma
[47] = system: SK-OV-3 ovarian
[48] = system: SN12C renal
[49] = system: SNB-19 CNS
[50] = system: SR leukemia
[51] = system: SW-620 colon
[52] = system: T-47D breast
[53] = system: TK-10 renal
[54] = system: U251 glioblastoma
[55] = system: UACC-257 melanoma
[56] = system: UACC-62 melanoma
[57] = system: UO-31 renal

## Cc1c(S(C)(=O)=O)c(-c2cc(F)cc(N3CCN(c4ccc(NS(=O)(=O)c5ccc(N[C@H](CCN6CCC(C(=O)OCCCP(=O)(O)O)CC6)CSc6ccccc6)c(S(=O)(=O)C(F)(F)F)c5)cc4)CC3)c2)c(-c2ccc(Cl)cc2)n1C(C)C
[1]
  GI50: > 100 µM
  TGI: > 100 µM
[2]
  GI50: > 100 µM
  TGI: > 100 µM
[3]
  GI50: > 100 µM
  TGI: > 100 µM
[4]
  GI50: > 100 µM
  TGI: > 100 µM
[5]
  GI50: > 100 µM
  TGI: > 100 µM
[6]
  GI50: > 100 µM
  TGI: > 100 µM
[7]
  GI50: 0.0412 µM
  TGI: 0.178 µM
[8]
  GI50: > 100 µM
  TGI: > 100 µM
[9]
  GI50: > 100 µM
  TGI: > 100 µM
[10]
  GI50: 0.425 µM
  TGI: 15.6 µM
[11]
  GI50: > 100 µM
  TGI: > 100 µM
[12]
  GI50: > 100 µM
  TGI: > 100 µM
[13]
  GI50: > 100 µM
  TGI: > 100 µM
[14]
  GI50: > 100 µM
  TGI: > 100 µM
[15]
  GI50: 0.0429 µM
  TGI: 0.739 µM
[16]
  GI50: > 100 µM
  TGI: > 100 µM
[17]
  GI50: > 100 µM
  TGI: > 100 µM
[18]
  GI50: > 100 µM
  TGI: > 100 µM
[19]
  GI50: > 100 µM
  TGI: > 100 µM
[20]
  GI50: > 100 µM
  TGI: > 100 µM
[21]
  GI50: > 100 µM
  TGI: > 100 µM
[22]
  GI50: > 100 µM
  TGI: > 100 µM
[23]
  GI50: > 100 µM
  TGI: > 100 µM
[24]
  GI50: 0.945 µM
  TGI: 15 µM
[25]
  GI50: > 100 µM
  TGI: > 100 µM
[26]
  GI50: 73.1 µM
  TGI: > 100 µM
[27]
  GI50: 0.0152 µM
  TGI: 0.0362 µM
[28]
  GI50: > 100 µM
  TGI: > 100 µM
[29]
  GI50: > 100 µM
  TGI: > 100 µM
[30]
  GI50: > 100 µM
  TGI: > 100 µM
[31]
  GI50: > 100 µM
  TGI: > 100 µM
[32]
  GI50: > 100 µM
  TGI: > 100 µM
[33]
  GI50: > 100 µM
  TGI: > 100 µM
[34]
  GI50: > 100 µM
  TGI: > 100 µM
[35]
  GI50: > 100 µM
  TGI: > 100 µM
[36]
  GI50: > 100 µM
  TGI: > 100 µM
[37]
  GI50: > 100 µM
  TGI: > 100 µM
[38]
  GI50: > 100 µM
  TGI: > 100 µM
[39]
  GI50: 0.0131 µM
  TGI: 0.0361 µM
[40]
  GI50: 0.12 µM
  TGI: 30.3 µM
[41]
  GI50: > 100 µM
  TGI: > 100 µM
[42]
  GI50: > 100 µM
  TGI: > 100 µM
[43]
  GI50: > 100 µM
  TGI: > 100 µM
[44]
  GI50: > 100 µM
  TGI: > 100 µM
[45]
  GI50: > 100 µM
  TGI: > 100 µM
[46]
  GI50: > 100 µM
  TGI: > 100 µM
[47]
  GI50: > 100 µM
  TGI: > 100 µM
[48]
  GI50: > 100 µM
  TGI: > 100 µM
[49]
  GI50: > 100 µM
  TGI: > 100 µM
[50]
  GI50: 0.892 µM
  TGI: > 100 µM
[51]
  GI50: > 100 µM
  TGI: > 100 µM
[52]
  GI50: > 100 µM
  TGI: > 100 µM
[53]
  GI50: > 100 µM
  TGI: > 100 µM
[54]
  GI50: > 100 µM
  TGI: > 100 µM
[55]
  GI50: > 100 µM
  TGI: > 100 µM
[56]
  GI50: > 100 µM
  TGI: > 100 µM
[57]
  GI50: > 100 µM
  TGI: > 100 µM
